The source of these data is patent US20180153870A1, “BIPERIDEN FOR TREATING CANCER” (Universitätsklinikum Hamburg-Eppendorf, priority 2015, published 2018).

For one assay, the system named is L3.6pl res. Description: MTT proliferation assay, L3.6pl res (gemcitabine-resistant). The assay is classed as cell-based, human. As to the method: (§1) The cell lines used for the proliferation assays were cultured in different media. The cell lines Pan-1, Panc-2 and BxPC3, which have been derived from the human ductal pancreatic adenocarcinoma (PDAC), were cultured in Dulbecco's modified Eagle medium (DMEM) (Sigma), that was supplemented with 1% penicillin/streptomycin (Life technologies/GIBCO 15140-122) and 10% fetal bovine serum (Life technologies/GIBCO 100500-064). The cell line L3.6pl was cultured in RPMI 1640 medium (Life technologies/GIBCO 72400-21) that was supplemented with 1% penicillin/streptomycin and 10% fetal bovine serum. A sub-clone of the cell line L3.6pl, that was designated L3.6pl res, was resistant to gemcitabine and was also cultured in RPMI 1640 medium (Life technologies/GIBCO 72400-21) that was supplemented with 1% penicillin/streptomycin, 10% fetal bovine serum and 2 μM gemcitabine (GEMZAR, Lily). The human immortalized, non-malignant cell line of the ductal pancreatic epithelium (HPDE) was cultured in keratinocyte-SFM (Life technologies/GIBCO) that was supplemented with 10% fetal bovine serum, 1% penicillin/streptomycin and 1% epidermal growth factor (EGF).
(§2) The proliferation rates of the cell lines were determined after stimulation with (i) biperiden, (ii) mepazine, and (iii) stimulation with both active ingredients. For this purpose, cells were seeded in plates with 96 wells at 5000 cells per well and incubated overnight at 37° C. and 5% CO2. Next morning, the blanket values were measured at 490 nm in an ELISA reader (FLUOstar Omega, BMG LABTECH) after the addition of 100 μL medium and 20 μL MTT substrate (CellTiter 96 AQueous One Solution Cell Proliferation Assay, Promega). Biperiden was added in increasing concentrations (3.71 μg/ml, 11.1 μg/ml und 29.6 μg/ml) in the form of solutions of biperiden hydrochloride (B5311 SIGMA-Aldrich, USA) and DMSO. […] The ex-tinction was measured every 24 hours during a period of 72 hours.
(§3) The normal distribution of the results was analyzed by Kolgomorov-Smirnov test and Shapiro-Wilk test. Non-parametric variables were analyzed using the Mann-Whitney-U test. […]

In the next assay the test system is Panc-2. Put plainly: MTT proliferation assay, Panc-2. Type of assay: cell-based, human. As to the method: as §1, §2, §3
Another assay concerns the target T1, MALT1 (Homo sapiens, UniProt Q9UDY8).
T1 construct: endogenous in cells; host or cells: Panc-1, Panc-2, HPDE, Jurkat (PMA-stimulated and non-stimulated)
T1 sequence (Q9UDY8 1-824): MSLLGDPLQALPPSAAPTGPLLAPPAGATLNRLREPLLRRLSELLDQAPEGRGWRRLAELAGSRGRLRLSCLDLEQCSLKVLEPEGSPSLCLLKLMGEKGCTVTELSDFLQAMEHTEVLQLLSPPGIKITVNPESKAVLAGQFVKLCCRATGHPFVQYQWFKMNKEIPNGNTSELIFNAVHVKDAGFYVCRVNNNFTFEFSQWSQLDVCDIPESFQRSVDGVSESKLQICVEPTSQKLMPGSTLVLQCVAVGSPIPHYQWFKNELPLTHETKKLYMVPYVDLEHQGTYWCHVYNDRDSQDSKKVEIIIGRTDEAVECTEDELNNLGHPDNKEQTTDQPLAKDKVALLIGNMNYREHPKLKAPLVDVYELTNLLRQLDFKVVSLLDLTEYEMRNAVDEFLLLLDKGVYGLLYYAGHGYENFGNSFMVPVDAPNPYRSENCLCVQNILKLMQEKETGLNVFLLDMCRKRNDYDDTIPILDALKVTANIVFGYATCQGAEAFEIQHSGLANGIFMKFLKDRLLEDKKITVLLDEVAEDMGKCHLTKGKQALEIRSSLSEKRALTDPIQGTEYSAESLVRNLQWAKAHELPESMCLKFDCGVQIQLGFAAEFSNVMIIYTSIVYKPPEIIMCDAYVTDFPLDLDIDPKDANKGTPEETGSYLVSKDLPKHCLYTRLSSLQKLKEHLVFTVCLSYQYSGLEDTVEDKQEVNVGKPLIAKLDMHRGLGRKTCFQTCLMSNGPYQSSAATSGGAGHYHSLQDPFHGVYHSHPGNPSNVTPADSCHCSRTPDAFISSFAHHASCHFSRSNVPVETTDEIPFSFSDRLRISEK
Put plainly: MALT1 activity in treated cells (immunoprecipitation, AC-LRSR-AMC cleavage). The assay is classed as cell-based. The protocol: The MALT1 activity was measured in the pancreatic cancer cells Panc-1, Panc-2 and in the reference line HPDE as well as in the PMA-stimulated and non-stimulated Jurkat cells. In order to examine whether mepazine, biperiden or a combination of both active ingredients influence the MALT1 activity and pancreatic cancer cells, an assay was performed as described in Nagel et al.. For this purpose, the pancreatic cancer cell lines and the reference cell lines were treated with biperiden (29.6 μg/ml), mepazine (25 μM), a combination of both active ingredients (15 μM mepazine+3.71 μg/ml biperiden) or only with DMSO. The cells were subsequently lysed and precipitated with mouse anti-MALT1 antibody (SC-76677, Santa Cruz, Calif., USA) as previously described by Gungor et al.. As described in the protocol, the fluorogenic substrate AC-LRSR-AMC, which was derived from the C-terminal BCL 10 cleavage site, was used as a substrate for MALT1. The cleavage activity of MALT1 was subsequently determined as relative fluorescence units by a microtiter plate reader (FLUOstar, Omega, BMG Labtech).
The results were determined after 24 hours of incubation with mepazine, biperiden, or a combination of both active ingredients. It was shown that pancreatic cancer cell lines as well as non-malignant, immortalized HPDE cell lines had constitutive MALT1 activity, although to a different extent. As a reference, a non-stimulated Jurkat cell line and a Jurkat cell line that was activated with PMA were examined.

The next assay relates to Panc-1. Put plainly: MTT proliferation assay, Panc-1. The assay is classed as cell-based, human. As to the method:
The cell lines used for the proliferation assays were cultured in different media. The cell lines Pan-1, Panc-2 and BxPC3, which have been derived from the human ductal pancreatic adenocarcinoma (PDAC), were cultured in Dulbecco's modified Eagle medium (DMEM) (Sigma), that was supplemented with 1% penicillin/streptomycin (Life technologies/GIBCO 15140-122) and 10% fetal bovine serum (Life technologies/GIBCO 100500-064). The cell line L3.6pl was cultured in RPMI 1640 medium (Life technologies/GIBCO 72400-21) that was supplemented with 1% penicillin/streptomycin and 10% fetal bovine serum. […]
The proliferation rates of the cell lines were determined after stimulation with (i) biperiden, (ii) mepazine, and (iii) stimulation with both active ingredients. […] Next morning, the blanket values were measured at 490 nm in an ELISA reader (FLUOstar Omega, BMG LABTECH) after the addition of 100 μL medium and 20 μL MTT substrate (CellTiter 96 AQueous One Solution Cell Proliferation Assay, Promega). […] The ex-tinction was measured every 24 hours during a period of 72 hours.
as §3

Take `OC(CCN1CCCCC1)(c1ccccc1)C1CC2C=CC1C2` (centres unmarked) [biperiden]: the “reduction of proliferation rate” value in the assay with L3.6pl res (29.6 μg/ml biperiden, p=0.022) came to 71.6%; in the assay on Panc-2 (29.6 μg/ml biperiden, trend, p=0.077), 98.2%. Also, the MALT1 activity result was “reduced the MALT1 activity” on MALT1 (HPDE, 29.7 μg/ml biperiden, 10, 30 and 60 minutes after incubation with the MALT1 substrate, significantly (p=0.002; p=0.005; p=0.012)); “visibly reduced the MALT1 activity; however, this effect was not statistically significant” at MALT1 (Panc-1, 29.7 μg/ml biperiden); “the MALT1 activity was reduced” at MALT1 (Panc-2, 29.7 μM biperiden, immediately and 10 minutes after addition of the MALT1 substrate, statistically significant (p=0.011; p=0.031)).

For `CN1CCCC(CN2c3ccccc3Sc3ccccc32)C1` (centres unmarked) [mepazine], the “reduction of proliferation rate” value in the assay with L3.6pl res (15 μM mepazine, p=0.031) is listed as 69.4%; in the assay with Panc-2 (15 μM mepazine, p=0.008), 56.1%; in the assay with Panc-2 (25 μM mepazine, p=0.001) it was 86.9%. Further, the proliferation result is “completely stopped” in the assay on L3.6pl res (25 μM mepazine, p=0.002) and “completely stopped” in the assay with Panc-1 (25 μM mepazine, p=0.004). The reduction of proliferation with Panc-1 (15 μM mepazine, p=0.005) came to 97.7%. The MALT1 activity result was “did not influence the MALT1 activity” at MALT1 (HPDE, 25 μM mepazine, 24 hours of incubation); “the MALT1 activity was reduced” at MALT1 (Panc-1, 25 μM mepazine, immediately after addition of the MALT1 substrate and 10, 30, 60 and 90 minutes thereafter, statistically significant); “reduced the MALT1 activity, whereas this reduction however was not statistically significant” at MALT1 (Panc-2, 25 μM mepazine).
